Source: patent EP2766361B1, “8-CARBAMOYL-2-(2,3-DISUBSTITUTED PYRID-6-YL)-1,2,3,4-TETRAHYDROISOQUINOLINE DERIVATIVES AS APOPTOSIS-INDUCING AGENTS FOR THE TREATMENT OF CANCER AND IMMUNE AND AUTOIMMUNE DISEASES” (priority 2011, dated 2013)

tested on: mouse FL5.12 cells transfected with Bcl-xL; assay: FL5.12 cellular assay (cell viability, CellTiter-Glo); type: cell-based; conditions: IL-3-depleted, 3% FBS assay media, 24 hours, read-out: FL5.12 Bcl-xL, -IL3, EC50
Description: Cell viability was assayed using the CellTiter-Glo assay (Promega Corp., Madison, WI) according to the manufacturer instructions. Individual determinations were the result of duplicate values. […] Table 2. In Vitro Data

Question: Which EC50 does the source give for Cc1c(-c2ccc(N3Cc4c(C(=O)Nc5nc6ccccc6s5)cccc4C(C)(C)C3)nc2C(=O)O)cnn1CC12CC3CC(CC(C3)C1)C2 [Example 14, 6-[8-(1,3-benzothiazol-2-ylcarbamoyl)-4,4-dimethyl-3,4-dihydroisoquinolin-2(1H)-yl]-3-[5-methyl-1-(tricyclo[3.3.1.1^3,^7]dec-1-ylmethyl)-1H-pyrazol-4-yl]pyridine-2-carboxylic acid] here?
Answer: < 1 nM

Question: How did the EC50 turn out when COCCOCCOCCOC12CC3CC(CC(Cn4ncc(-c5ccc(N6CCc7cccc(C(=O)Nc8nc9ccccc9s8)c7C6)nc5C(=O)O)c4C)(C3)C1)C2 [Example 80, 6-[8-(1,3-benzothiazol-2-ylcarbamoyl)-3,4-dihydroisoquinolin-2(1H)-yl]-3-(1-{[3-{2-[2-(2-methoxyethoxy)ethoxy]ethoxy}tricyclo[3.3.1.1^3,7]dec-1-yl]methyl}-5-methyl-1H-pyrazol-4-yl)pyridine-2-carboxylic acid] was run?
Answer: 1 nM

Question: Cc1c(-c2ccc(N3CCc4cccc(C(=O)Nc5nc6ccccc6s5)c4C3)nc2C(=O)NS(C)(=O)=O)cnn1CC12CC3CC(CC(C3)C1)C2 [Example 17, N-(1,3-benzothiazol-2-yl)-2-{6-[(methylsulfonyl)carbamoyl]-5-[5-methyl-1-(tricyclo[3.3.1.1^3,7]dec-1-ylmethyl)-1H-pyrazol-4-yl]pyridin-2-yl}-1,2,3,4-tetrahydroisoquinoline-8-carboxamide] was tested. Which EC50 did it give?
Answer: 1 nM

Question: With O=C(Nc1nc2ccccc2s1)c1cccc2c1CN(c1ccc(-c3ccnc(OCC45CC6CC(CC(C6)C4)C5)c3)c(C(=O)O)n1)CC2 [Example 25, 6-[8-(1,3-benzothiazol-2-ylcarbamoyl)-3,4-dihydroisoquinolin-2(1H)-yl]-2'-(tricyclo[3.3.1.1^3,7]dec-1-ylmethoxy)-3,4'-bipyridine-2-carboxylic acid] as the molecule, how does the EC50 read?
Answer: > 1000 nM

Question: Which EC50 does the source give for Cc1c(-c2ccc(N3CCc4cccc(C(=O)Nc5nc6ccccc6s5)c4C3)nc2C(=O)O)cnn1CC12CC3CC(C)(CC(C)(C3)C1)C2 [Example 32, 6-[8-(1,3-benzothiazol-2-ylcarbamoyl)-3,4-dihydroisoquinolin-2(1H)-yl]-3-(1-{[3,5-dimethyltricyclo[3.3.1.1^3,7]dec-1-yl]methyl}-5-methyl-1H-pyrazol-4-yl)pyridine-2-carboxylic acid] here?
Answer: 1 nM

Question: How did the EC50 turn out when Cc1c(-c2ccc(N3CCc4cccc(C(=O)Nc5nc6cccnc6s5)c4C3)nc2C(=O)NS(C)(=O)=O)cnn1CC12CC3CC(CC(C3)C1)C2 [Example 75, 2-{6-[(methylsulfonyl)carbamoyl]-5-[5-methyl-1-(tricyclo[3.3.1.1^3,7]dec-1-ylmethyl)-1H-pyrazol-4-yl]pyridin-2-yl}-N-([1,3]thiazolo[5,4-b]pyridin-2-yl)-1,2,3,4-tetrahydroisoquinoline-8-carboxamide] was run?
Answer: 3 nM

Question: Cc1c(-c2ccc(N3CCc4cccc(C(=O)Nc5nc6ccccc6s5)c4C3)nc2C(=O)O)cnn1CC1(OCCS(C)(=O)=O)CCCCCCC1 [Example 65, 6-[8-(1,3-benzothiazol-2-ylcarbamoyl)-3,4-dihydroisoquinolin-2(1H)-yl]-3-[5-methyl-1-({1-[2-(methylsulfonyl)ethoxy]cyclooctyl}methyl)-1H-pyrazol-4-yl]pyridine-2-carboxylic acid] was tested. Which EC50 did it give?
Answer: 1 nM

Question: How did the EC50 turn out when CC12CC3(C)CC(C)(C1)CC(Cn1cc(-c4ccc(N5CCc6cccc(C(=O)Nc7nc8ccccc8s7)c6C5)nc4C(=O)O)cn1)(C2)C3 [Example 9, 6-[8-(1,3-benzothiazol-2-ylcarbamoyl)-3,4-dihydroisoquinolin-2(1H)-yl]-3-{1-[(3,5,7-trimethyltricyclo[3.3.1.1^3,7]dec-1-yl)methyl]-1H-pyrazol-4-yl}pyridine-2-carboxylic acid] was run?
Answer: 3 nM

Question: N#Cc1c(-c2ccc(N3CCc4cccc(C(=O)Nc5nc6ccccc6s5)c4C3)nc2C(=O)O)cccc1S(=O)(=O)C12CC3CC(CC(C3)C1)C2 [Example 60, 6-[8-(1,3-benzothiazol-2-ylcarbamoyl)-3,4-dihydroisoquinolin-2(1H)-yl]-3-[2-cyano-3-(tricyclo[3.3.1.1^3,7]dec-1-ylsulfonyl)phenyl]pyridine-2-carboxylic acid] was tested. Which EC50 did it give?
Answer: 55 nM

Question: For Cc1c(-c2ccc(N3CCc4cccc(C(=O)Nc5nc6ccccc6s5)c4C3)nc2C(=O)O)ccnc1S(=O)(=O)C12CC3CC(CC(C3)C1)C2 [Example 70, 6-[8-(1,3-benzothiazol-2-ylcarbamoyl)-3,4-dihydroisoquinolin-2(1H)-yl]-3'-methyl-2'-(tricyclo[3.3.1.1^3,7]dec-1-ylsulfonyl)-3,4'-bipyridine-2-carboxylic acid], which EC50 is on record?
Answer: 72 nM

Question: COC12CC3CC(CC(Cn4cc(-c5ccc(N6CCc7cccc(C(=O)Nc8nc9ccccc9s8)c7C6)nc5C(=O)O)cn4)(C3)C1)C2 [Example 7, 6-[8-(1,3-benzothiazol-2-ylcarbamoyl)-3,4-dihydroisoquinolin-2(1H)-yl]-3-(1-{[3-methoxytricyclo[3.3.1.1^3,7]dec-1-yl]methyl}-1H-pyrazol-4-yl)pyridine-2-carboxylic acid] was tested. Which EC50 did it give?
Answer: 37 nM

Question: With Cc1c(-c2ccc(N3CCc4cccc(C(=O)Nc5nc6ccccc6s5)c4C3)nc2C(=O)NS(C)(=O)=O)cc(C#N)n1CC12CC3CC(CC(C3)C1)C2 [Example 35, N-(1,3-benzothiazol-2-yl)-2-{5-[5-cyano-2-methyl-1-(tricyclo[3.3.1.1^3,7]dec-1-ylmethyl)-1H-pyrrol-3-yl]-6-[(methylsulfonyl)carbamoyl]pyridin-2-yl}-1,2,3,4-tetrahydroisoquinoline-8-carboxamide] as the molecule, how does the EC50 read?
Answer: 1 nM

Question: Which EC50 does the source give for O=C(Nc1nc2ccccc2s1)c1cccc2c1CN(c1ccc(-c3cnn(CC45CC6CC(C4)CC(N4CCOCC4)(C6)C5)c3)c(C(=O)O)n1)CC2 [Example 15, 6-[8-(1,3-benzothiazol-2-ylcarbamoyl)-3,4-dihydroisoquinolin-2(1H)-yl]-3-(1-{[3-(morpholin-4-yl)tricyclo[3.3.1.1^3,7]dec-1-yl]methyl}-1H-pyrazol-4-yl)pyridine-2-carboxylic acid] here?
Answer: 110 nM

Question: How did the EC50 turn out when O=C(Nc1nc2ccccc2s1)c1cccc2c1CN(c1ccc(-c3cnn(CC45CC6CC(CC(O)(C6)C4)C5)c3)c(C(=O)O)n1)CC2 [Example 6, 6-[8-(1,3-benzothiazol-2-ylcarbamoyl)-3,4-dihydroisoquinolin-2(1H)-yl]-3-(1-{[3-hydroxytricyclo[3.3.1.1^3,7]dec-1-yl]methyl}-1H-pyrazol-4-yl)pyridine-2-carboxylic acid] was run?
Answer: 146 nM

Question: With Cc1c(-c2ccc(N3CCc4cccc(C(=O)Nc5nc6ccccc6s5)c4C3)nc2C(=O)O)cccc1N(C)CC12CC3CC(CC(C3)C1)C2 [Example 55, 6-[8-(1,3-benzothiazol-2-ylcarbamoyl)-3,4-dihydroisoquinolin-2(1H)-yl]-3-(2-methyl-3-{methyl[tricyclo[3.3.1.1^3,7]dec-1-ylmethyl]amino}phenyl)pyridine-2-carboxylic acid] as the molecule, how does the EC50 read?
Answer: 47 nM

Question: Which EC50 does the source give for COC12CC3CC(CC(Cn4ncc(-c5ccc(N6CCc7cccc(C(=O)Nc8nc9ccccc9s8)c7C6)nc5C(=O)NS(C)(=O)=O)c4C)(C3)C1)C2 [Example 37, N-(1,3-benzothiazol-2-yl)-2-{5-(1-{[3-methoxytricyclo[3.3.1.1^3,7]dec-1-yl]methyl}-5-methyl-1H-pyrazol-4-yl)-6-[(methylsulfonyl)carbamoyl]pyridin-2-yl}-1,2,3,4-tetrahydroisoquinoline-8-carboxamide] here?
Answer: 3 nM

Question: Which EC50 does the source give for Cc1c(NC(=O)C23CC4CC(CC(C4)C2)C3)cccc1-c1ccc(N2CCc3cccc(C(=O)Nc4nc5ccccc5s4)c3C2)nc1C(=O)O [Example 50, 6-[8-(1,3-benzothiazol-2-ylcarbamoyl)-3,4-dihydroisoquinolin-2(1H)-yl]-3-(2-methyl-3-{[tricyclo[3.3.1.1^3,7]dec-1-ylcarbonyl]amino}phenyl)pyridine-2-carboxylic acid] here?
Answer: > 1000 nM

Question: With COC12CC3CC(CC(Cn4ncc(-c5ccc(N6CCc7cccc(C(=O)Nc8nc9ccccc9s8)c7C6)nc5C(=O)NS(=O)(=O)C5CC5)c4C)(C3)C1)C2 [Example 41] as the molecule, how does the EC50 read?
Answer: 0.4 nM

Question: Which EC50 does the source give for O=C(Nc1nc2ccccc2s1)c1cccc2c1CN(c1ccc(-c3cnn(CC45CC6CC(CC(Br)(C6)C4)C5)c3)c(C(=O)O)n1)CC2 [Example 11, 6-[8-(1,3-benzothiazol-2-ylcarbamoyl)-3,4-dihydroisoquinolin-2(1H)-yl]-3-(1-{[3-bromotricyclo[3.3.1.1^3,7]dec-1-yl]methyl}-1H-pyrazol-4-yl)pyridine-2-carboxylic acid] here?
Answer: 11 nM

Question: For O=C(Nc1nc2ccccc2s1)c1cccc2c1CN(c1ccc(-c3cccc(OCC45CC6CC(CC(C6)C4)C5)c3)c(C(=O)O)n1)CC2 [Example 22, 6-[8-(1,3-benzothiazol-2-ylcarbamoyl)-3,4-dihydroisoquinolin-2(1H)-yl]-3-{3-[tricyclo[3.3.1.1^3,7]dec-1-ylmethoxy]phenyl}pyridine-2-carboxylic acid], which EC50 is on record?
Answer: > 1000 nM

Question: With N#Cc1c(NC23CC4CC(CC(C4)C2)C3)cccc1-c1ccc(N2CCc3cccc(C(=O)Nc4nc5ccccc5s4)c3C2)nc1C(=O)O [Example 47, 6-[8-(1,3-benzothiazol-2-ylcarbamoyl)-3,4-dihydroisoquinolin-2(1H)-yl]-3-{2-cyano-3-[tricyclo[3.3.1.1^3,7]dec-1-ylamino]phenyl}pyridine-2-carboxylic acid] as the molecule, how does the EC50 read?
Answer: 54 nM

Question: How did the EC50 turn out when CC12CC3CC(C)(C1)CC(Cn1cc(-c4ccc(N5CCc6cccc(C(=O)Nc7nc8ccccc8s7)c6C5)nc4C(=O)O)cn1)(C3)C2 [Example 5, 6-[8-(1,3-benzothiazol-2-ylcarbamoyl)-3,4-dihydroisoquinolin-2(1H)-yl]-3-(1-{[3,5-dimethyltricyclo[3.3.1.1^3,7]dec-1-yl]methyl}-1H-pyrazol-4-yl)pyridine-2-carboxylic acid] was run?
Answer: 2 nM

Question: Cc1c(-c2ccc(N3CCc4cccc(C(=O)Nc5nc6cnccc6s5)c4C3)nc2C(=O)O)cnn1CC12CC3CC(CC(C3)C1)C2 [Example 31, 3-[5-methyl-1-(tricyclo[3.3.1.1^3,7]dec-1-ylmethyl)-1H-pyrazol-4-yl]-6-[8-([1,3]thiazolo[4,5-c]pyridin-2-ylcarbamoyl)-3,4-dihydroisoquinolin-2(1H)-yl]pyridine-2-carboxylic acid] was tested. Which EC50 did it give?
Answer: 5 nM
